From ChEMBL document CHEMBL1153681 (Bioorg Med Chem Lett, 1992)

Columns and labels:
Mu-type opioid receptor = Mu-type opioid receptor (Rattus norvegicus, UniProt P33535)
Description: Evaluated for its affinity towards Opioid receptor mu 1 in rat forebrain by displacing the radioligand [3H]sufentanil.

[1] = target: Delta-type opioid receptor (Rattus norvegicus, UniProt P33533); assay: Evaluated for its affinity towards Opioid receptor delta 1 in rat fore brain by displacing the radioligand [3H]DPDPE.
Mus musculus = organism: Mus musculus; assay: Evaluated for its ability to inhibit electrically induced contractions in the mouse vas deferens (MVD); format: functional, organism-based
[2] = Ratio of the ability to inhibit electrically induced contractions in the mouse vas deferens (MVD) to that of the guinea pig ileum (GPI); format: functional
Cavia porcellus = organism: Cavia porcellus; assay: Evaluated for its ability to inhibit electrically induced contractions in the guinea pig ileum (GPI); format: functional, organism-based

Sequence of Mu-type opioid receptor (P33535 whole entry): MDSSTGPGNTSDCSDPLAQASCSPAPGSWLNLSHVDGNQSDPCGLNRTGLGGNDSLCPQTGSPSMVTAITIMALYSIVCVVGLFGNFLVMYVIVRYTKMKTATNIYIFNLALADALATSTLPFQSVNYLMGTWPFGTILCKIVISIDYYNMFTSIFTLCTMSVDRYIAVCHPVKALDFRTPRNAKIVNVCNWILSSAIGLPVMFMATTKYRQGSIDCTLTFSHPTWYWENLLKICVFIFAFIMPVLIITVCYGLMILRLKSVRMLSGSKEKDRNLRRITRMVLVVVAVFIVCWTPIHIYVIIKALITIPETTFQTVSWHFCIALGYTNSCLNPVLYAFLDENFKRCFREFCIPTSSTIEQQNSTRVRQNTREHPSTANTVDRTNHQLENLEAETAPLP
Sequence of Delta-type opioid receptor (P33533 whole entry): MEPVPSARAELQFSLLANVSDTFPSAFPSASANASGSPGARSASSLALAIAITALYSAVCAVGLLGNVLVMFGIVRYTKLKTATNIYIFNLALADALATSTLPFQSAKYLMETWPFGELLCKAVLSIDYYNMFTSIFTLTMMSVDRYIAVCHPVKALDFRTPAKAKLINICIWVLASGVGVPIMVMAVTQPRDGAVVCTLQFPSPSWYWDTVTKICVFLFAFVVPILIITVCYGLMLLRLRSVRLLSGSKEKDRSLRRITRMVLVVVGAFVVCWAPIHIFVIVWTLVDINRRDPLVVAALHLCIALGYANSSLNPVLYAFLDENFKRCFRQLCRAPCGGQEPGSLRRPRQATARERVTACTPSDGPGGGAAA

Compound	IC50 (Mu-type opioid receptor)	IC50 [1]	IC50 (Mus musculus)	Ratio [2]	IC50 (Cavia porcellus)
C[C@H](NC(=O)[C@@H](N)Cc1ccc(O)cc1)C(=O)N[C@H]1Cc2ccccc2CN(CC(=O)N[C@@H](Cc2ccc(O)cc2)C(=O)N2CCC[C@H]2C(=O)N[C@@H](CO)C(N)=O)C1=O	11 nM	17.4 nM	0.66 nM	0.06	10.8 nM
CC(C)[C@H](NC(=O)[C@H](CC(=O)O)NC(=O)[C@H](Cc1ccccc1)NC(=O)[C@@H](C)NC(=O)[C@@H](N)Cc1ccc(O)cc1)C(=O)N[C@H](C(=O)NCC(N)=O)C(C)C [DELTORPHIN C]	–	–	0.32 nM	<=0.0001	≥ 3000 nM
C[C@@H](NC(=O)[C@@H](N)Cc1ccc(O)cc1)C(=O)N[C@@H](Cc1ccccc1)C(=O)NCC(=O)N[C@@H](Cc1ccc(O)cc1)C(=O)N1CCC[C@H]1C(=O)N[C@@H](CO)C(N)=O [DERMORPHIN]	2.4 nM	–	–	–	1.06 nM
